System: 966289-007-R4-J1-PDC complex spheroid viability
Experiment: Anticancer human tumor 966289-007-R4-J1-PDC patient-derived pancreatic adenocarcinoma cell line growth inhibition [RAS]
Conditions: for IC50: curve of first compound; for viability, T/C: stronger effect = lower value
In short: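 Agents were tested in combination matrices in half-log decrements from a top concentration at or near clinical Cmax (10 microM if undetermined). Targets were multi-cell spheroids of tumour lines plus HUVEC and MSC stromal cells.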

[1] = second compound 0.000949 µM, first compound 0.00316 µM
[2] = second compound 0.000949 µM, first compound 0.01 µM
[3] = second compound 0.000949 µM, first compound 0.0316 µM
[4] = second compound 0.000949 µM, first compound 0.1 µM
[5] = second compound 0.000949 µM, first compound 0.316 µM
[6] = second compound 0.000949 µM, first compound 1 µM
[7] = second compound 0.003 µM, first compound 0.00316 µM
[8] = second compound 0.003 µM, first compound 0.01 µM
[9] = second compound 0.003 µM, first compound 0.0316 µM
[10] = second compound 0.003 µM, first compound 0.1 µM
[11] = second compound 0.003 µM, first compound 0.316 µM
[12] = second compound 0.003 µM, first compound 1 µM
[13] = second compound 0.00949 µM, first compound 0.00316 µM
[14] = second compound 0.00949 µM, first compound 0.01 µM
[15] = second compound 0.00949 µM, first compound 0.0316 µM
[16] = second compound 0.00949 µM, first compound 0.1 µM
[17] = second compound 0.00949 µM, first compound 0.316 µM
[18] = second compound 0.00949 µM, first compound 1 µM
[19] = second compound 0.03 µM, first compound 0.00316 µM
[20] = second compound 0.03 µM, first compound 0.01 µM
[21] = second compound 0.03 µM, first compound 0.0316 µM
[22] = second compound 0.03 µM, first compound 0.1 µM
[23] = second compound 0.03 µM, first compound 0.316 µM
[24] = second compound 0.03 µM, first compound 1 µM
[25] = second compound 0.0949 µM, first compound 0.00316 µM
[26] = second compound 0.0949 µM, first compound 0.01 µM
[27] = second compound 0.0949 µM, first compound 0.0316 µM
[28] = second compound 0.0949 µM, first compound 0.1 µM
[29] = second compound 0.0949 µM, first compound 0.316 µM
[30] = second compound 0.0949 µM, first compound 1 µM
[31] = second compound 0.3 µM, first compound 0.00316 µM
[32] = second compound 0.3 µM, first compound 0.01 µM
[33] = second compound 0.3 µM, first compound 0.0316 µM
[34] = second compound 0.3 µM, first compound 0.1 µM
[35] = second compound 0.3 µM, first compound 0.316 µM
[36] = second compound 0.3 µM, first compound 1 µM
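Note: spheroids exposed to agents for one week before readout.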
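Throughout, for viability, T/C: percent viability relative to DMSO vehicle control wells as 100%.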

C=CC(=O)N1CCN(c2nc(OCC3CCCN3C)nc3c(F)c(-c4nc(N)cc(C)c4C(F)(F)F)c(Cl)cc23)C(C)C1 (stereo unspecified) + CCn1c(-c2cccnc2C(C)OC)c2c3cc(ccc31)N1CCOC(CC(NC(=O)C(C(C)C)N(C)C(=O)C3(F)CCN(C(=O)C#CC(C)(C)N(C)C)CC3)C(=O)N3CCCC(N3)C(=O)OCC(C)(C)C2)C1
IC50 (second compound 0.000949 µM): > 1000 nM | IC50 (second compound 0.003 µM): > 1000 nM | IC50 (second compound 0.00949 µM): > 1000 nM | IC50 (second compound 0.03 µM): > 1000 nM | IC50 (second compound 0.0949 µM): > 1000 nM | IC50 (second compound 0.3 µM): > 1000 nM | viability, T/C [1]: 94.7% | viability, T/C [2]: 74.5% | viability, T/C [3]: 93.2% | viability, T/C [4]: 51% | viability, T/C [5]: 67.2% | viability, T/C [6]: 76.7% | viability, T/C [7]: 105% | viability, T/C [8]: 66.2% | viability, T/C [9]: 90% | viability, T/C [10]: 50.3% | viability, T/C [11]: 85.4% | viability, T/C [12]: 69.7% | viability, T/C [13]: 56.1% | viability, T/C [14]: 81.2% | viability, T/C [15]: 94.1% | viability, T/C [16]: 58.1% | viability, T/C [17]: 87.2% | viability, T/C [18]: 84% | viability, T/C [19]: 52% | viability, T/C [20]: 65.9% | viability, T/C [21]: 79.7% | viability, T/C [22]: 59.8% | viability, T/C [23]: 102% | viability, T/C [24]: 85.3% | viability, T/C [25]: 61.3% | viability, T/C [26]: 76.5% | viability, T/C [27]: 95% | viability, T/C [28]: 93.5% | viability, T/C [29]: 91% | viability, T/C [30]: 93.4% | viability, T/C [31]: 87.8% | viability, T/C [32]: 90.8% | viability, T/C [33]: 106% | viability, T/C [34]: 92.2% | viability, T/C [35]: 127% | viability, T/C [36]: 91.6%

CCN1CCN(Cc2ccc(Nc3ncc(F)c(-c4cc(F)c5nc(C)n(C(C)C)c5c4)n3)nc2)CC1 + CCn1c(-c2cc(N3CCN(C)CC3)cnc2C(C)OC)c2c3cc(ccc31)-c1csc(n1)CC(NC(=O)C1CC1C)C(=O)N1CCCC(N1)C(=O)OCC(C)(C)C2
IC50 (second compound 0.000949 µM): > 1000 nM | IC50 (second compound 0.003 µM): > 1000 nM | IC50 (second compound 0.00949 µM): > 1000 nM | IC50 (second compound 0.03 µM): > 1000 nM | IC50 (second compound 0.0949 µM): > 1000 nM | IC50 (second compound 0.3 µM): > 1000 nM | viability, T/C [1]: 122% | viability, T/C [2]: 116% | viability, T/C [3]: 130% | viability, T/C [4]: 86.2% | viability, T/C [5]: 92.2% | viability, T/C [6]: 89.8% | viability, T/C [7]: 109% | viability, T/C [8]: 121% | viability, T/C [9]: 112% | viability, T/C [10]: 95.7% | viability, T/C [11]: 114% | viability, T/C [12]: 85% | viability, T/C [13]: 93.9% | viability, T/C [14]: 116% | viability, T/C [15]: 120% | viability, T/C [16]: 97.7% | viability, T/C [17]: 98.7% | viability, T/C [18]: 96.7% | viability, T/C [19]: 85.3% | viability, T/C [20]: 105% | viability, T/C [21]: 129% | viability, T/C [22]: 95% | viability, T/C [23]: 97.8% | viability, T/C [24]: 85.1% | viability, T/C [25]: 129% | viability, T/C [26]: 100% | viability, T/C [27]: 115% | viability, T/C [28]: 95.9% | viability, T/C [29]: 86.9% | viability, T/C [30]: 88.6% | viability, T/C [31]: 101% | viability, T/C [32]: 89.8% | viability, T/C [33]: 114% | viability, T/C [34]: 111% | viability, T/C [35]: 97.9% | viability, T/C [36]: 79%

O=C(c1ccc(F)c(F)c1Nc1ccc(I)cc1F)N1CC(O)([C@@H]2CCCCN2)C1 + CCn1c(-c2cc(N3CCN(C)CC3)cnc2C(C)OC)c2c3cc(ccc31)-c1csc(n1)CC(NC(=O)C1CC1C)C(=O)N1CCCC(N1)C(=O)OCC(C)(C)C2
IC50 (second compound 0.000949 µM): 641 nM | IC50 (second compound 0.003 µM): 596 nM | IC50 (second compound 0.00949 µM): 228 nM | IC50 (second compound 0.03 µM): 124 nM | IC50 (second compound 0.0949 µM): 45.2 nM | IC50 (second compound 0.3 µM): 32.1 nM | viability, T/C [1]: 101% | viability, T/C [2]: 89.9% | viability, T/C [3]: 106% | viability, T/C [4]: 77.7% | viability, T/C [5]: 74.2% | viability, T/C [6]: 36.2% | viability, T/C [7]: 92% | viability, T/C [8]: 90.8% | viability, T/C [9]: 94.7% | viability, T/C [10]: 74.5% | viability, T/C [11]: 75.5% | viability, T/C [12]: 32.2% | viability, T/C [13]: 83.8% | viability, T/C [14]: 96.2% | viability, T/C [15]: 87.8% | viability, T/C [16]: 82.5% | viability, T/C [17]: 37% | viability, T/C [18]: 22.6% | viability, T/C [19]: 87.3% | viability, T/C [20]: 79.3% | viability, T/C [21]: 76.2% | viability, T/C [22]: 54.2% | viability, T/C [23]: 29.9% | viability, T/C [24]: 15.5% | viability, T/C [25]: 97.5% | viability, T/C [26]: 93% | viability, T/C [27]: 52.5% | viability, T/C [28]: 34.6% | viability, T/C [29]: 21.1% | viability, T/C [30]: 11% | viability, T/C [31]: 93.1% | viability, T/C [32]: 76.5% | viability, T/C [33]: 52% | viability, T/C [34]: 23.7% | viability, T/C [35]: 19.7% | viability, T/C [36]: 10.4%

Source: PubChem BioAssay AID2060897 (Molecular Pharmacology Branch, DTP, NCI, 2025)
